The target in one assay is T1, human NPY Y2 receptor (Homo sapiens, UniProt P49146).
T1 construct: host or cells: HEK-293 cells that also express a cAMP-sensitive calcium channel
T1 sequence (P49146 1-381): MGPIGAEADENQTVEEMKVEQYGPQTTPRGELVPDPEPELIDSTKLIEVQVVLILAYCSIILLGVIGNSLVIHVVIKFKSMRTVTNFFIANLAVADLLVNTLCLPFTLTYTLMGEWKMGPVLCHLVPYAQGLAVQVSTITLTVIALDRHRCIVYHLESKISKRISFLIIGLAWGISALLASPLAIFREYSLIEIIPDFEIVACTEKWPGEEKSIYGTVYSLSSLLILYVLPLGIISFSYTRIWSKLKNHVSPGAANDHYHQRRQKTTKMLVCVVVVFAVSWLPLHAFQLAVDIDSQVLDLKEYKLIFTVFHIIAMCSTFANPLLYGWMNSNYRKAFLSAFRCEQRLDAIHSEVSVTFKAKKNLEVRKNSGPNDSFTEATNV
As to the kind of experiment: Actone functional potency assay (Y2 in vitro potency, whole cell). Type of assay: cell-based. An excerpt:
The purpose of this example is to test the activity, or potency, of the PYY compounds in vitro. The Y2 in vitro potency is the measure of the activation of the human Y2 receptor subtype in a whole cell assay.
Actone Functional Potency Assay
The Neuropeptide Y (NPY) receptors are Gi-coupled seven trans-membrane receptors that mainly signal through the cAMP dependent pathway by inhibiting adenylate cyclase activity which results in a decrease of cAMP production from ATP. The Actone assay is based on a modified calcium channel that has a selective binding for cAMP, resulting in cellular calcium influx, detected by a calcium responsive dye. In order to measure decreased levels of cAMP, as result of NPY receptor activation, the β1/β2-adrenoreceptor agonist, isoproterenol, is added to activate adenylate cyclase and increases cAMP levels in the cell. Decreased cellular calcium concentrations, reflecting a decrease of cAMP levels due to NPY receptor activation, is detected as a decrease in fluorescence from the calcium sensitive dye.

In the next assay the target is T2, human Y1 receptor (Homo sapiens, UniProt P25929).
T2 construct: expressed in transfected cells; host or cells: BHK-21 clone 6-482-8, IPTG-induced (membrane preparation)
T2 sequence (P25929 1-384): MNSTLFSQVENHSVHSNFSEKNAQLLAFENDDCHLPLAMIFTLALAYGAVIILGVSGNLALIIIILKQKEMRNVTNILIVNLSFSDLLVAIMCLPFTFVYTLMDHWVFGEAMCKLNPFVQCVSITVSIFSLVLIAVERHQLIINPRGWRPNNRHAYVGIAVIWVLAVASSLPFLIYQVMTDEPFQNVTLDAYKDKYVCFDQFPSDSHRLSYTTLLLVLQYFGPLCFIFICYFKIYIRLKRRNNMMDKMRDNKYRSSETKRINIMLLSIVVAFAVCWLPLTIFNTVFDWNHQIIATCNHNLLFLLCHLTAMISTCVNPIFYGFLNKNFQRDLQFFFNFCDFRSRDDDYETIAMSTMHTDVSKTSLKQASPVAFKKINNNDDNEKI
As to the kind of experiment: Scintillation proximity assay (SPA) receptor binding, Y1. The protocol: (§1) The purpose of this example is to test the in vitro binding of the PYY compounds to the Y1, Y2, Y4 and Y5 receptor subtypes, respectively. The receptor binding affinity is a measure of affinity of a compound for the human Y1, Y2, Y4 and Y5 receptor subtypes, respectively.
(§2) Scintillation Proximity Assay (SPA)
(§3) NPY-Receptor Expressing Cell Lines.
(§4) All cells were cultured at +37° C. in a humidified atmosphere with 5% CO2. […] CHO-K1 cells stably expressing the human Y2 receptor (P49146, NPY2R_HUMAN, Uniprot) were cultured in DMEM F-12 with 10% FBS, 1% P/S, 150 μg/ml Hygromycin B and 10 μg/ml Puromycin antibiotic. CHO-K1 cells stably expressing the human Y4 receptor (P50391, NPY4R_HUMAN, Uniprot) were cultured in DMEM F-12 with 10% FBS, 1% P/S, 10 μg/ml Puromycin. HEK-293 cells stably expressing the human Y5 receptor (Q15761, NPY5R_HUMAN, Uniprot) were cultured in DMEM F-12 medium containing 10% FBS, 1% Penicillin-Streptomycin, 250 μg/ml G418 and 1 μg/ml puromycin.
The homogenate was centrifuged at 35000 g using an ultracentrifuge for 10 minutes at +4° C. and the supernatant was discarded and fresh homogenization buffer added. Homogenization of the pellet was repeated a total of three times.
Human Y receptor SPA binding assay were performed in white 96-well plates in a total volume of 200 μl per well.
(§5) Plates were sealed and incubated at +25° C. for 2 hours in a plate shaker set at 400 rpm and thereafter centrifuged at 1500 rpm for 10 minutes prior to reading of luminescence on a microplate scintillation and luminescence counter. […] Displacement of radioligand was measured as reduction in luminescence and IC50 values were calculated by nonlinear regression analysis of sigmoidal dose-response curves.
In general terms: SPA uses beads or plates that emit light when radiolabelled molecules are held near them.

The target of the next assay is T3, human Y5 receptor (Homo sapiens, UniProt Q15761).
T3 construct: expressed in transfected cells; host or cells: HEK-293 (membrane preparation)
T3 sequence (Q15761 1-445): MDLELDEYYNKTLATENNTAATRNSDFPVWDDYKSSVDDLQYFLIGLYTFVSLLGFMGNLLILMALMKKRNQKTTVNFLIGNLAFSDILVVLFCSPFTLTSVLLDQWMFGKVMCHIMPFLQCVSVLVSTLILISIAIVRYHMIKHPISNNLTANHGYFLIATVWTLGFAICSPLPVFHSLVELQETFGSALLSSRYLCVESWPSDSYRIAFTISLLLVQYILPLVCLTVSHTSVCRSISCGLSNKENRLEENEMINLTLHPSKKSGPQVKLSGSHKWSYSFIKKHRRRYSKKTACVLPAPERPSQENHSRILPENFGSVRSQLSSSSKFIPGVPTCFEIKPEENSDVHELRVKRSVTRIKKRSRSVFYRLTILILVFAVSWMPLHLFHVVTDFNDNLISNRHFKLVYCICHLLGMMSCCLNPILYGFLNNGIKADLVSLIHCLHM
Briefly: Scintillation proximity assay (SPA) receptor binding, Y5. Conditions: membranes of HEK-293 cells, [125I]-PYY(1-36). The protocol:
as §1, §2, §3
as §4, with “puromycin. […]” for “puromycin.”
as §5

For the compound `CC(C)CC(=O)N[C@@H](CCCNC(=N)N)C(=O)N1CCC[C@H]1C(=O)N[C@@H](CCC(=O)O)C(=O)N[C@@H](C)C(=O)N1CCC[C@H]1C(=O)NCC(=O)N[C@@H](CCCCNC(=O)CC[C@H](NC(=O)COCCOCCNC(=O)CC[C@H](NC(=O)CCCCCCCCCCCCCCCCC(=O)O)C(=O)O)C(=O)O)C(=O)N[C@@H](CC(=O)O)C(=O)N[C@@H](C)C(=O)N[C@@H](CO)C(=O)N1CCC[C@H]1C(=O)N[C@@H](CCC(=O)O)C(=O)N[C@@H](CCC(=O)O)C(=O)N[C@@H](CC(C)C)C(=O)N[C@@H](CCC(N)=O)C(=O)N[C@@H](CCCNC(=N)N)C(=O)N[C@@H](Cc1ccc(O)cc1)C(=O)N[C@@H](Cc1ccc(O)cc1)C(=O)N[C@@H](C)C(=O)N[C@@H](CCC(=O)O)C(=O)N[C@@H](CC(C)C)C(=O)N[C@@H](CCCNC(=N)N)C(=O)N[C@@H](Cc1c[nH]cn1)C(=O)N[C@@H](Cc1ccc(O)cc1)C(=O)N[C@@H](Cc1ccc(O)cc1)C(=O)N[C@@H](CC(N)=O)C(=O)N[C@@H](Cc1c[nH]c2ccccc12)C(=O)N[C@@H](CC(C)C)C(=O)N[C@H](C(=O)N[C@@H](CCCNC(=N)N)C(=O)N[C@@H](CCC(N)=O)C(=O)N[C@@H](CCCNC(=N)N)C(=O)N[C@@H](Cc1ccc(O)cc1)C(N)=O)[C@@H](C)O` [Compound 53, N{alpha-4}-(3-Methylbutanoyl)-N{Epsilon-10}-[(4S)-4-carboxy-4-[[2-[2-[2-[[(4S)-4-carboxy-4-(17-carboxyheptadecanoylamino)butanoyl]amino]ethoxy]ethoxy]-acetyl]amino]butanoyl]-[Arg4,Lys10,Gln18,Glu23,Tyr28,Trp30,Leu31]-PYY(4-36)], the response on human NPY Y2 receptor was half-maximal at 0.77 nM (EC50). Further, the Ki (commonly the equilibrium dissociation constant of an inhibitor or competing ligand from its target) at human Y1 receptor was above 10000 nM.

Regarding `CC(C)CC(=O)N[C@@H](CCCNC(=N)N)C(=O)N1CCC[C@H]1C(=O)N[C@@H](CCC(=O)O)C(=O)N[C@@H](C)C(=O)N1CCC[C@H]1C(=O)N1CCC[C@H]1C(=O)N[C@@H](CCCCNC(=O)CC[C@H](NC(=O)COCCOCCNC(=O)CC[C@H](NC(=O)CCCCCCCCCCCCCCCCC(=O)O)C(=O)O)C(=O)O)C(=O)N[C@@H](CC(=O)O)C(=O)N[C@@H](C)C(=O)N[C@@H](CO)C(=O)N1CCC[C@H]1C(=O)N[C@@H](CCC(=O)O)C(=O)N[C@@H](CCC(=O)O)C(=O)N[C@@H](CC(C)C)C(=O)N[C@@H](CCC(N)=O)C(=O)N[C@@H](CCCNC(=N)N)C(=O)N[C@@H](Cc1ccc(O)cc1)C(=O)N[C@@H](Cc1ccc(O)cc1)C(=O)N[C@@H](C)C(=O)N[C@@H](CO)C(=O)N[C@@H](CC(C)C)C(=O)N[C@@H](CCCNC(=N)N)C(=O)N[C@@H](Cc1c[nH]cn1)C(=O)N[C@@H](Cc1ccc(O)cc1)C(=O)N[C@@H](Cc1ccc(O)cc1)C(=O)N[C@@H](CC(N)=O)C(=O)N[C@@H](Cc1c[nH]c2ccccc12)C(=O)N[C@@H](CC(C)C)C(=O)N[C@H](C(=O)N[C@@H](CCCNC(=N)N)C(=O)N[C@@H](CCC(N)=O)C(=O)N[C@@H](CCCNC(=N)N)C(=O)N[C@@H](Cc1ccc(O)cc1)C(N)=O)[C@@H](C)O` [Compound 56, N{alpha-4}-(3-Methylbutanoyl)-N{Epsilon-10}-[(4S)-4-carboxy-4-[[2-[2-[2-[[(4S)-4-carboxy-4-(17-carboxyheptadecanoylamino)butanoyl]amino]ethoxy]ethoxy]-acetyl]amino]butanoyl]-[Arg4,Pro9,Lys10,Gln18,Tyr28,Trp30,Leu31]-PYY(4-36)], the Ki at human Y1 receptor was above 10000 nM; on human Y5 receptor it was 279 nM.

With `CC(C)CC(=O)N[C@@H](CCCNC(=N)N)C(=O)N1CCC[C@H]1C(=O)N[C@@H](CCC(=O)O)C(=O)N[C@@H](C)C(=O)N1CCC[C@H]1C(=O)NCC(=O)N[C@@H](CCCCNC(=O)CC[C@H](NC(=O)COCCOCCNC(=O)CC[C@H](NC(=O)CCCCCCCCCCCCCCCCC(=O)O)C(=O)O)C(=O)O)C(=O)N[C@@H](CC(=O)O)C(=O)N[C@@H](C)C(=O)N[C@@H](CO)C(=O)N1CCC[C@H]1C(=O)N[C@@H](CCC(=O)O)C(=O)N[C@@H](CCC(=O)O)C(=O)N[C@@H](CC(C)C)C(=O)N[C@@H](CCC(N)=O)C(=O)N[C@@H](CCCNC(=N)N)C(=O)N[C@@H](Cc1ccc(O)cc1)C(=O)N[C@@H](Cc1ccc(O)cc1)C(=O)N[C@@H](C)C(=O)N[C@@H](CO)C(=O)N[C@@H](CC(C)C)C(=O)N[C@@H](CCCNC(=N)N)C(=O)N[C@@H](Cc1c[nH]cn1)C(=O)N[C@@H](Cc1ccc(O)cc1)C(=O)N[C@@H](Cc1ccc(O)cc1)C(=O)N[C@@H](CC(N)=O)C(=O)N[C@@H](Cc1c[nH]c2ccccc12)C(=O)N[C@@H](CC(C)C)C(=O)N[C@H](C(=O)N[C@@H](CCCNC(=N)N)C(=O)N[C@@H](CCC(N)=O)C(=O)N[C@@H](CCCNC(=N)N)C(=O)N[C@@H](Cc1ccc(O)cc1)C(N)=O)[C@@H](C)O` [Compound 59, N{alpha-4}-(3-Methylbutanoyl)-N{Epsilon-10}-[(4S)-4-carboxy-4-[[2-[2-[2-[[(4S)-4-carboxy-4-(17-carboxyheptadecanoylamino)butanoyl]amino]ethoxy]ethoxy]-acetyl]amino]butanoyl]-[Arg4,Lys10,Gln18,Tyr28,Trp30,Leu31]-PYY-(4-36)], the inhibition constant Ki was above 10000 nM at human Y1 receptor and 279 nM at human Y5 receptor.

For the origin of these results see patent US10005824B2, “Selective PYY compounds and uses thereof” (Novo Nordisk A/S, priority 2015, dated 2018).
